Read-outs that look alike come from different tables or passages of the source.
What was measured:
[1] = urine diluted with 5 mM borate; cited from earlier work
[2] = cited from earlier work
[3] = GFR by capillary electrophoresis of non-isotopic (cold) iothalamate meglumine, timed urine and average of 2 plasma samples after subcutaneous injection; assay type: in vivo, human; conditions: for mean GFR: capillary electrophoresis
Method: Prior to the test, patients were given 3 drops of a saturated solution of potassium iodide in 20 mis of water to prevent thyroid uptake of the small amount of free ^125 I-iothalamate and to protect patients from radiation exposure to the thyroid. They were also given a single subcutaneous injection of 0.5 mls of iothalamate meglumine (Conray®) (300 mg) diluted 1:1 with distilled water. Patients who professed an allergy to iodine were not included in this study, nor were patients who had been given an angiographic dye in the previous 24 hours.
On the day of the appointment, the patient ate nothing for 4 hours preceding the test (diabetics 2 hours) and drank 4 glasses of water in the hour preceding the test. They were also instructed not to void within 45 minutes of their appointment time. Patients were given oral hydration of 200 mls/per hour throughout the test.
Prior to injection, urine (U0) and blood plasma (P0) samples were obtained to assess for drug interferences. After subcutaneous injection of the two different GFR markers, a 45-minute equilibration period allowed blood levels to peak and become stable or fall as previously described for 125I subcutaneous iothalamate clearances by N. T. Ott et al., Mayo Clin. Proc., 50, 664 (1975), for ^125 I-iothalamate. This sampling method was adapted from studies reported by Israelit et al. for ^125 I-iothalamate, in Kid. […] After the 45 minute equilibration period, 7 ml of blood (P1) and a urine sample (UE) were collected and time (T0) was recorded. […] Bladder emptying was assessed by monitoring with a Diagnostic Ultrasound bladder scanner (Model No. 2500). […]
The patient was moved to a waiting room and returned to the laboratory after 45 to 60 minutes when the urge to void became apparent. Second blood (P2) and urine (U1) samples were collected, urine volume was recorded, and bladder emptying monitored. Adequacy of the test was confirmed if the bladder was empty (<10 ml or <10% of voided volume on scanner readout), and a minimum of 100 mls of urine was voided during the test. The timed urine (U1) and bloods (P1 and P2) were analyzed by CE. […]

Row | mean GFR ([3]; initial patient group, before vortexing of ultrafiltrate) [mls/min/1.73 M^2] | range of GFR's over which CE and isotope methods correlated ([3]; initial patients (one hundred), s.c. injection) | mean GFR ([3]; second group of 31 patients, ultrafiltrate vortexed) [mls/min] | Structure (SMILES) | sample stability, refrigerated [1] | GFR - Range of Normal ([2]; AGE 18-22) [ml/min/1.73 m^2] | GFR - Range of Normal ([2]; AGE 23-27) [ml/min/1.73 m^2] | GFR - Range of Normal ([2]; AGE 28-32) [ml/min/1.73 m^2] | GFR - Range of Normal ([2]; AGE 33-37) [ml/min/1.73 m^2] | GFR - Range of Normal ([2]; AGE 38-42) [ml/min/1.73 m^2] | GFR - Range of Normal ([2]; AGE 43-47) [ml/min/1.73 m^2] | GFR - Range of Normal ([2]; AGE 48-52) [ml/min/1.73 m^2] | GFR - Range of Normal ([2]; AGE 53-57) [ml/min/1.73 m^2] | GFR - Range of Normal ([2]; AGE 58-62) [ml/min/1.73 m^2] | GFR - Range of Normal ([2]; AGE >62) [ml/min/1.73 m^2]
1 | – | – | – | CNC(=O)c1c(I)c(NC(C)=O)c(I)c(C(=O)O)c1I [Iothalamate] | at least 2 weeks | > 90 | > 88 | > 86 | > 84 | > 82 | > 80 | > 78 | > 75 | > 73 | > 70
2 | 58 | 9-103 mls/min/1.73 M^2 | 62 | CNC(=O)c1c(I)c(NC(C)=O)c(I)c(C(=O)O)c1I [iothalamate meglumine, 1-deoxy-1-(methylamino)-D-glucitol-5-acetamido-2,4,6,-triiodo-N-methylisophthalamate] | – | – | – | – | – | – | – | – | – | – | –

Source: US5989198A, “Use of capillary electrophoresis to determine glomerular filtration rate using iothalamate” (Mayo Foundation for Medical Education and Research, priority 1997, dated 1999)
